Experimental data taken from patent US11299461B2 (priority 2018, dated 2022).

Target: LF 263-C catalytic domain (anthrax lethal factor) (Bacillus anthracis, UniProt P15917)
Test: biochemical

LF 263-C catalytic domain (anthrax lethal factor), sequence (P15917 296-809 limits assumed): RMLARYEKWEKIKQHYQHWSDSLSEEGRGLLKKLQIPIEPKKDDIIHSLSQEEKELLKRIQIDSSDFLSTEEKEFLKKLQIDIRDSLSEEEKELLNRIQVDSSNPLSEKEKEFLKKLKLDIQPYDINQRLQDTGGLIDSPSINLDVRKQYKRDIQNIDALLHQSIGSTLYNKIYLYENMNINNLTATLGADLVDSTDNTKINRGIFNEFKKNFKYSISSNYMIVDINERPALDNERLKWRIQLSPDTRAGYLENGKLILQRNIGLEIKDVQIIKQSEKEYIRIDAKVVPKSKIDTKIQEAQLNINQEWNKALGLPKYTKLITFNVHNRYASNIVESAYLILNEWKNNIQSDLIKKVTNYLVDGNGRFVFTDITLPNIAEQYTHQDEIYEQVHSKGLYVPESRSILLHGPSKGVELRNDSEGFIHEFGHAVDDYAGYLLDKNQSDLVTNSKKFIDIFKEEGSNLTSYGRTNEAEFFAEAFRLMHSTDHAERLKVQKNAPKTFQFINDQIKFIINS

Row | Structure (SMILES) | Ki
1 | CC(C)[C@@H](NCCCC[C@@H](Cc1cc(Cl)c(F)c(Cl)c1)C(=O)NO)c1ccc(Cl)cn1 [Compound 35, (S)-6-(((R)-1-(5-chloropyridin-2-yl)-2-methylpropyl)amino)-2-(3,5-dichloro-4-fluorobenzyl)-N-hydroxyhexanamide] | 0.42 nM
2 | Cc1cc(C[C@H](CCCCN[C@@H](c2ccc(F)cn2)C(C)C)C(=O)NO)cc(F)c1F [Compound 36, (S)-2-(3,4-difluoro-5-methylbenzyl)-6-(((R)-1-(5-fluoropyridin-2-yl)-2-methylpropyl)amino)-N-hydroxyhexanamide] | 0.72 nM
3 | Cc1cc(C[C@H](CCCCN[C@@H](c2ccc(Cl)cn2)C(C)C)C(=O)NO)cc(F)c1F [Compound 37, (S)-6-(((R)-1-(5-chloropyridin-2-yl)-2-methylpropyl)amino)-2-(3,4-difluoro-5-methylbenzyl)-N-hydroxyhexanamide] | 0.87 nM
4 | COc1ccc(CN(C)CCCC[C@@H](Cc2cc(C)c(F)c(F)c2)C(=O)NO)nc1 [Compound 38, (S)-2-(3,4-difluoro-5-methylbenzyl)-N-hydroxy-6-(((5-methoxypyridin-2-yl)methyl)(methyl)amino)hexanamide] | 4.9 nM
5 | CO[C@H](C[C@H](CCCCN[C@H](CO)c1ccc(F)cn1)C(=O)NO)c1ccc(F)cc1 [Compound 39, (S)-2-((R)-2-(4-fluorophenyl)-2-methoxyethyl)-6-(((S)-1-(5-fluoropyridin-2-yl)-2-hydroxyethyl)amino)-N-hydroxyhexanamide] | 1.7 nM
6 | CCN(CCCC[C@@H](C[C@@H](OC)c1ccc(F)cc1)C(=O)NO)Cc1ccc(Cl)cn1 [Compound 40, (S)-6-(((5-chloropyridin-2-yl)methyl)(ethyl)amino)-2-((R)-2-(4-fluorophenyl)-2-methoxyethyl)-N-hydroxyhexanamide] | 4.5 nM
7 | CO[C@H](C[C@H](CCCCNCc1ccc(Cl)cn1)C(=O)NO)c1ccc(F)cc1 [Compound 41, (S)-6-(((5-chloropyridin-2-yl)methyl)amino)-2-((R)-2-(4-fluorophenyl)-2-methoxyethyl)-N-hydroxyhexanamide] | 2.2 nM
8 | CO[C@H](C[C@H](CCCCN(C)Cc1ccc(Cl)cn1)C(=O)NO)c1ccc(F)cc1 [Compound 42, (S)-6-(((5-chloropyridin-2-yl)methyl)(methyl)amino)-2-((R)-2-(4-fluorophenyl)-2-methoxyethyl)-N-hydroxyhexanamide] | 3 nM
9 | CO[C@H](C[C@H](CCCCN(C)Cc1ccc(Br)cn1)C(=O)NO)c1ccc(F)cc1 [Compound 43, (S)-6-(((5-bromopyridin-2-yl)methyl)(methyl)amino)-2-((R)-2-(4-fluorophenyl)-2-methoxyethyl)-N-hydroxyhexanamide] | 12.5 nM
10 | CCc1cc(Cl)cnc1CN(C)CCCC[C@@H](C[C@@H](OC)c1ccc(F)cc1)C(=O)NO [Compound 44, (S)-6-(((5-chloro-3-ethylpyridin-2-yl)methyl)(methyl)amino)-2-((R)-2-(4-fluorophenyl)-2-methoxyethyl)-N-hydroxyhexanamide] | 6.7 nM
11 | CO[C@H](C[C@H](CCCCN(C)Cc1cccc(C)n1)C(=O)NO)c1ccc(F)cc1 [Compound 45, (S)-2-((R)-2-(4-fluorophenyl)-2-methoxyethyl)-N-hydroxy-6-(methyl((6-methylpyridin-2-yl)methyl)amino)hexanamide] | 15.8 nM
12 | CO[C@H](C[C@H](CCCCN(C)Cc1cc(C)ccn1)C(=O)NO)c1ccc(F)cc1 [Compound 46, (S)-2-((R)-2-(4-fluorophenyl)-2-methoxyethyl)-N-hydroxy-6-(methyl((4-methylpyridin-2-yl)methyl)amino)hexanamide] | 14 nM
13 | CO[C@H](C[C@H](CCCCN(CCO)Cc1ncc(F)cc1Cl)C(=O)NO)c1ccc(F)cc1 [Compound 47, (S)-6-(((3-chloro-5-fluoropyridin-2-yl)methyl)(2-hydroxyethyl)amino)-2-((R)-2-(4-fluorophenyl)-2-methoxyethyl)-N-hydroxyhexanamide] | 53.5 nM
14 | CO[C@H](C[C@H](CCCCN[C@@H](c1ccc(F)cn1)C(C)C)C(=O)NO)c1ccc(F)cc1 [Compound 48, (S)-2-((R)-2-(4-fluorophenyl)-2-methoxyethyl)-6-(((R)-1-(5-fluoropyridin-2-yl)-2-methylpropyl)amino)-N-hydroxyhexanamide] | 0.62 nM
15 | COc1ccc([C@H](NCCCC[C@@H](C[C@@H](OC)c2ccc(F)cc2)C(=O)NO)C(C)C)nc1 [Compound 49, (S)-2-((R)-2-(4-fluorophenyl)-2-methoxyethyl)-N-hydroxy-6-(((R)-1-(5-methoxypyridin-2-yl)-2-methylpropyl)amino)hexanamide] | 2.7 nM
16 | CO[C@H](C[C@H](CCCCN[C@@H](c1ccc(F)c(C)n1)C(C)C)C(=O)NO)c1ccc(F)cc1 [Compound 50, (S)-6-(((R)-1-(5-fluoro-6-methylpyridin-2-yl)-2-methylpropyl)amino)-2-((R)-2-(4-fluorophenyl)-2-methoxyethyl)-N-hydroxyhexanamide] | 2.7 nM
17 | CO[C@H](C[C@H](CCCCN[C@@H](c1ccc(Cl)cn1)C(C)C)C(=O)NO)c1ccc(F)cc1 [Compound 51, (S)-6-(((R)-1-(5-chloropyridin-2-yl)-2-methylpropyl)amino)-2-((R)-2-(4-fluorophenyl)-2-methoxyethyl)-N-hydroxyhexanamide] | 0.54 nM
18 | CO[C@H](C[C@H](CCCCN[C@@H](c1ncc(F)cc1F)C(C)C)C(=O)NO)c1ccc(F)cc1 [Compound 52, (S)-6-(((R)-1-(3,5-difluoropyridin-2-yl)-2-methylpropyl)amino)-2-((R)-2-(4-fluorophenyl)-2-methoxyethyl)-N-hydroxyhexanamide] | 2.1 nM
19 | CO[C@H](C[C@H](CCCCN[C@@H](c1ncc(Cl)cc1Cl)C(C)C)C(=O)NO)c1ccc(F)cc1 [Compound 53, (S)-6-(((R)-1-(3,5-dichloropyridin-2-yl)-2-methylpropyl)amino)-2-((R)-2-(4-fluorophenyl)-2-methoxyethyl)-N-hydroxyhexanamide] | 6.2 nM
20 | CC[C@@H](NCCCC[C@@H](C[C@@H](OC)c1ccc(F)cc1)C(=O)NO)c1ncc(Cl)cc1Cl [Compound 54, (S)-6-(((R)-1-(3,5-dichloropyridin-2-yl)propyl)amino)-2-((R)-2-(4-fluorophenyl)-2-methoxyethyl)-N-hydroxyhexanamide] | 2.4 nM
21 | CO[C@H](C[C@H](CCCCN[C@H](C)c1ccc(Cl)cn1)C(=O)NO)c1ccc(F)cc1 [Compound 55, (S)-6-(((R)-1-(5-chloropyridin-2-yl)ethyl)amino)-2-((R)-2-(4-fluorophenyl)-2-methoxyethyl)-N-hydroxyhexanamide] | 1.6 nM
22 | CC[C@@H](NCCCC[C@@H](C[C@@H](OC)c1ccc(F)cc1)C(=O)NO)c1ccc(Cl)cn1 [Compound 56, (S)-6-(((R)-1-(5-chloropyridin-2-yl)propyl)amino)-2-((R)-2-(4-fluorophenyl)-2-methoxyethyl)-N-hydroxyhexanamide] | 0.79 nM
23 | CCN(CCCC[C@@H](C[C@@H](OC)c1ccc(F)c(C)c1)C(=O)NO)Cc1ccc(Cl)cn1 [Compound 57, (S)-6-(((5-chloropyridin-2-yl)methyl)(ethyl)amino)-2-((R)-2-(4-fluoro-3-methylphenyl)-2-methoxyethyl)-N-hydroxyhexanamide] | 2.8 nM
24 | CO[C@H](C[C@H](CCCCN[C@@H](c1ccc(Cl)cn1)C(C)C)C(=O)NO)c1ccc(F)c(C)c1 [Compound 58, (S)-6-(((R)-1-(5-chloropyridin-2-yl)-2-methylpropyl)amino)-2-((R)-2-(4-fluoro-3-methylphenyl)-2-methoxyethyl)-N-hydroxyhexanamide] | 2.3 nM
